Assay results as given in article PMC5215716, “A Target-Based Whole Cell Screen Approach To Identify Potential Inhibitors of Mycobacterium tuberculosis Signal Peptidase” (ACS Infectious Diseases, 2016).
Values after ≈ are worked out from the molar mass of the structure shown.

Tested on: M. tuberculosis strain expressing LepB under the hsp60 promotor (LepB-OE)
Experiment: microbe, parasite or virus in culture
Type: cell-based
Conditions: Mycobacterium tuberculosis, average ± SD of at least two experiments

Row | SMILES | MIC [µM]
1 | C/C(=N\NC(=O)C1CC1)c1ccccn1 [Compound 40] | 27 ± 2 (≈ 5.49 µg/mL)
2 | C/C(=N\Nc1nc(C)cc(C)n1)c1ccccn1 [Compound 1] | 18 ± 8 (≈ 4.34 µg/mL)
3 | Cc1cc(C)nc(NN=C(c2ccccc2)c2ccccc2)n1 [Compound 27] | 103 ± 38 (≈ 31.1 µg/mL)
4 | C/C(=N\NC(=N)c1ccccn1)c1ccccn1 [Compound 30] | > 200
5 | C/C(=N\NC(=O)c1ccoc1C)c1ccccn1 [Compound 39] | 6.5 ± 2.2 (≈ 1.58 µg/mL)
6 | C/C(=N\NC(=O)C1CCCN(S(=O)(=O)c2ccccc2)C1)c1ccccn1 (centres unmarked) [Compound 38] | 9.2 ± 4 (≈ 3.56 µg/mL)
7 | C/C(=N\NC(=O)c1ccc(N2CCCC2=O)cc1)c1ccccn1 [Compound 11] | 5.6 ± 0.6 (≈ 1.81 µg/mL)
8 | Oc1ccccc1/C=N/Nc1nc(-c2ccccc2)cs1 [Compound 2] | 160 ± 57 (≈ 47.3 µg/mL)
